Data taken from ChEMBL document CHEMBL1201862, “PubChem BioAssay data set” (2004).
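Interpolation was linear, between the two tested concentrations surrounding the appropriate level; five concentrations were tested over 48 hours in 96-well plates. GI50: concentration for 50% inhibition of growth.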 The source made the active and inactive calls. No stated cut-off is given here; in the data, active = GI50 up to about 1.1 µM and inactive = higher.

Assays:
Assay in all cases: growth of human tumour cells (NCI), 48 h
786-0 = system: 786-0
A498 = system: A498
A549 = system: A549
ACHN = system: ACHN
CAKI-1 = system: CAKI-1
CCRF-CEM = system: CCRF-CEM
COLO 205 = system: COLO 205
DMS-114 = system: DMS-114
EKVX = system: EKVX
HCC 2998 = system: HCC 2998
HCT-116 = system: HCT-116
HCT-15 = system: HCT-15
HL-60 = system: HL-60
HOP-18 = system: HOP-18
HOP-62 = system: HOP-62
HOP-92 = system: HOP-92
HT-29 = system: HT-29
IGROV-1 = system: IGROV-1
K562 = system: K562
KM-20L2 = system: KM-20L2
KM12 = system: KM12
LOX IMVI = system: LOX IMVI
LXFL 529 = system: LXFL 529
M14 = system: M14
M19-MEL = system: M19-MEL
MOLT-4 = system: MOLT-4
Malme-3M = system: Malme-3M
NCI-H226 = system: NCI-H226
NCI-H23 = system: NCI-H23
NCI-H460 = system: NCI-H460
NCI-H522 = system: NCI-H522
OVCAR-3 = system: OVCAR-3
OVCAR-4 = system: OVCAR-4
OVCAR-5 = system: OVCAR-5
OVCAR-8 = system: OVCAR-8
RPMI-8226 = system: RPMI-8226
RXF 393 = system: RXF 393
SF-268 = system: SF-268
SF-295 = system: SF-295
SF-539 = system: SF-539
SK-MEL-28 = system: SK-MEL-28
SK-MEL-5 = system: SK-MEL-5
SK-OV-3 = system: SK-OV-3
SN12C = system: SN12C
SNB-19 = system: SNB-19
SNB-75 = system: SNB-75
SW-620 = system: SW-620
TK-10 = system: TK-10
U-251 = system: U-251
UACC-257 = system: UACC-257
UACC-62 = system: UACC-62
UO-31 = system: UO-31
XF498 = system: XF498
DLD-1 = system: DLD-1
DMS-273 = system: DMS-273
SK-MEL-2 = system: SK-MEL-2
SNB-78 = system: SNB-78
SR = system: SR

CC(C)=Cc1cc(C(=O)NCCNC(=O)c2cc(C=C(C)C)nc(NC#N)n2)nc(NC#N)n1
GI50 (786-0): > 100 µM (inactive) | GI50 (A498): > 100 µM (inactive) | GI50 (A549): > 100 µM (inactive) | GI50 (ACHN): > 100 µM (inactive) | GI50 (CAKI-1): > 100 µM (inactive) | GI50 (CCRF-CEM): > 100 µM (inactive) | GI50 (COLO 205): > 100 µM (inactive) | GI50 (DMS-114): > 100 µM (inactive) | GI50 (EKVX): > 100 µM (inactive) | GI50 (HCC 2998): > 100 µM (inactive) | GI50 (HCT-116): > 100 µM (inactive) | GI50 (HCT-15): > 100 µM | GI50 (HL-60): > 100 µM (inactive) | GI50 (HOP-18): > 100 µM (inactive) | GI50 (HOP-62): > 100 µM (inactive) | GI50 (HOP-92): > 100 µM (inactive) | GI50 (HT-29): > 100 µM (inactive) | GI50 (IGROV-1): > 100 µM (inactive) | GI50 (K562): > 100 µM (inactive) | GI50 (KM-20L2): > 100 µM (inactive) | GI50 (KM12): > 100 µM (inactive) | GI50 (LOX IMVI): > 100 µM (inactive) | GI50 (LXFL 529): > 100 µM (inactive) | GI50 (M14): > 100 µM (inactive) | GI50 (M19-MEL): > 100 µM (inactive) | GI50 (MOLT-4): > 100 µM (inactive) | GI50 (Malme-3M): > 100 µM (inactive) | GI50 (NCI-H226): > 100 µM (inactive) | GI50 (NCI-H23): > 100 µM (inactive) | GI50 (NCI-H460): > 100 µM (inactive) | GI50 (NCI-H522): > 100 µM (inactive) | GI50 (OVCAR-3): > 100 µM (inactive) | GI50 (OVCAR-4): > 100 µM (inactive) | GI50 (OVCAR-5): > 100 µM (inactive) | GI50 (OVCAR-8): > 100 µM (inactive) | GI50 (RPMI-8226): > 100 µM (inactive) | GI50 (RXF 393): > 100 µM (inactive) | GI50 (SF-268): > 100 µM (inactive) | GI50 (SF-295): > 100 µM (inactive) | GI50 (SF-539): > 100 µM (inactive) | GI50 (SK-MEL-28): > 100 µM (inactive) | GI50 (SK-MEL-5): > 100 µM (inactive) | GI50 (SK-OV-3): > 100 µM (inactive) | GI50 (SN12C): > 100 µM (inactive) | GI50 (SNB-19): > 100 µM (inactive) | GI50 (SNB-75): > 100 µM (inactive) | GI50 (SW-620): > 100 µM (inactive) | GI50 (TK-10): > 100 µM (inactive) | GI50 (U-251): > 100 µM (inactive) | GI50 (UACC-257): > 100 µM (inactive) | GI50 (UACC-62): > 100 µM (inactive) | GI50 (UO-31): > 100 µM (inactive) | GI50 (XF498): > 100 µM (inactive)

C[S+]([O-])c1ccc(COP(N)(=O)N(CCCl)CCCl)cc1 (centres undefined)
GI50 (786-0): > 100 µM (inactive) | GI50 (A498): > 100 µM (inactive) | GI50 (A549): > 100 µM (inactive) | GI50 (ACHN): > 100 µM (inactive) | GI50 (CAKI-1): > 100 µM (inactive) | GI50 (CCRF-CEM): > 100 µM (inactive) | GI50 (COLO 205): > 100 µM (inactive) | GI50 (DLD-1): > 100 µM (inactive) | GI50 (DMS-114): > 100 µM (inactive) | GI50 (DMS-273): > 100 µM (inactive) | GI50 (EKVX): > 100 µM (inactive) | GI50 (HCC 2998): > 100 µM (inactive) | GI50 (HCT-116): > 100 µM (inactive) | GI50 (HL-60): > 100 µM (inactive) | GI50 (HOP-62): > 100 µM (inactive) | GI50 (HOP-92): > 100 µM (inactive) | GI50 (HT-29): > 100 µM (inactive) | GI50 (IGROV-1): > 100 µM (inactive) | GI50 (K562): > 100 µM (inactive) | GI50 (KM-20L2): > 100 µM (inactive) | GI50 (KM12): > 100 µM (inactive) | GI50 (LOX IMVI): > 100 µM (inactive) | GI50 (LXFL 529): > 100 µM (inactive) | GI50 (M14): > 100 µM (inactive) | GI50 (M19-MEL): > 100 µM (inactive) | GI50 (MOLT-4): > 100 µM (inactive) | GI50 (Malme-3M): > 100 µM (inactive) | GI50 (NCI-H226): > 100 µM (inactive) | GI50 (NCI-H23): > 100 µM (inactive) | GI50 (NCI-H460): > 100 µM (inactive) | GI50 (NCI-H522): > 100 µM (inactive) | GI50 (OVCAR-3): > 100 µM (inactive) | GI50 (OVCAR-4): > 100 µM (inactive) | GI50 (OVCAR-5): > 100 µM (inactive) | GI50 (OVCAR-8): > 100 µM (inactive) | GI50 (RPMI-8226): > 100 µM (inactive) | GI50 (RXF 393): > 100 µM (inactive) | GI50 (SF-268): > 100 µM (inactive) | GI50 (SF-295): > 100 µM (inactive) | GI50 (SF-539): > 100 µM (inactive) | GI50 (SK-MEL-28): > 100 µM (inactive) | GI50 (SK-MEL-2): > 100 µM (inactive) | GI50 (SK-MEL-5): > 100 µM (inactive) | GI50 (SK-OV-3): > 100 µM (inactive) | GI50 (SN12C): > 100 µM (inactive) | GI50 (SNB-19): > 100 µM (inactive) | GI50 (SNB-75): > 100 µM (inactive) | GI50 (SNB-78): > 100 µM (inactive) | GI50 (SR): > 100 µM (inactive) | GI50 (SW-620): > 100 µM (inactive) | GI50 (TK-10): > 100 µM (inactive) | GI50 (U-251): > 100 µM (inactive) | GI50 (UACC-257): > 100 µM (inactive) | GI50 (UACC-62): > 100 µM (inactive) | GI50 (UO-31): > 100 µM (inactive) | GI50 (XF498): > 100 µM (inactive)
